Data as given in patent publication US9321745B2, “Inhibition of neovascularization by inhibition of prostanoid IP receptors” (ALLERGAN, INC., priority 2013, dated 2016).
Values belong to the molecule of their own block, whether it stands above or below them.

How the values were obtained:
[1] = system: laser-induced choroidal neovascularization (CNV); assay: Laser-induced model of choroidal neovascularization (CNV); type: in vivo
Experimental: A laser-induced model of CNV was employed, as known in the art, to determine whether blockade of IP receptors alone is sufficient to inhibit CNV. See e.g., Francois et al., 1975, Am. J. Ophthalmol. 79:206-210; Edelman & Castro, 2000, Exp. Eye Res. 71:523-533; Goody, R. J., et al., 2011, Exp. Eye. Research 92:464-472. Test rats were administered laser treatment after which vehicle (50% propylene glycol in H2O) or IP receptor antagonist Formula II was administered. The area of subsequently identified CNV was quantified by methods known in the art. […] Moreover, as depicted in FIG. 2C, the area of CNV was reduced on a per lesion basis.

[2] = target: T1, IP receptor (Homo sapiens, UniProt P43119); assay: Inhibition of 100 nM cicaprost-induced VEGF secretion in TNFα-stimulated human macrophages; type: cell-based; conditions: TNFα-stimulated human macrophages from two individual donors, FIG. 1B
T1 construct: endogenous in cells; host or cells: TNFα-stimulated human macrophages from individual donors
Excerpt: (§1) A TNFα-stimulated human macrophage system was employed, as known in the art, to assess the effect of IP receptor agonist and IP receptor antagonist on induction of VEGF secretion.
In order to test whether a IP receptor antagonist can reverse the effect of cicaprost-induced VEGF secretion in TNFα-stimulated human macrophages, the IP receptor antagonist Formula I was employed.

[3] = target: T1, IP receptor; assay: Cicaprost-induced VEGF secretion in TNFα-stimulated human macrophages; type: cell-based; conditions: FIG. 1A
Excerpt: as §1

T1 sequence (P43119 whole entry): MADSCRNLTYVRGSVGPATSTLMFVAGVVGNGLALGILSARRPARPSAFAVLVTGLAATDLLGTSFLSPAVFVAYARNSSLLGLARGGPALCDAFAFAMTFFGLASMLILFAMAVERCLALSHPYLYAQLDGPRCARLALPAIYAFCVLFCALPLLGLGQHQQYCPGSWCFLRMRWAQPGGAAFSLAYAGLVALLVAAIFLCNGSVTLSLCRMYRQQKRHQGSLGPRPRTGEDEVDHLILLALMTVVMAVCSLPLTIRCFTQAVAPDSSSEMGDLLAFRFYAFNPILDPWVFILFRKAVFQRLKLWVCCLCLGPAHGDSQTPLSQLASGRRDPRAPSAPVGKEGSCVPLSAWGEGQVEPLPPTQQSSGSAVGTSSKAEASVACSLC

SMILES: O=C(N[C@@H](Cc1ccc(F)cc1)C(=O)O)OCc1cc2cc(-c3cccc(F)c3)ccc2o1 [Formula II]
area of CNV per test subject (rat vs. rat) ([1]; after laser treatment, vs vehicle 50% propylene glycol in H2O, n=6, FIG. 2A): significantly reduced
area of CNV, comparison of each eye (eye vs. eye) ([1]; rat, after laser treatment, vs vehicle, n=12, FIG. 2B): reduced
area of CNV on a per lesion basis (lesion vs. lesion) ([1]; rat, after laser treatment, vs vehicle, n=38, FIG. 2C): reduced
inhibition of laser-induced choroidal neovascularization (CNV) ([1]; rat, FIG. 2 overall, vs vehicle 50% propylene glycol in H20): sufficient to inhibit laser-induced choroidal neovascularization

inhibition of cicaprost-induced VEGF secretion [2]: dose dependently inhibits
SMILES: CC(C)Oc1ccc(Cc2ccc(NC3=NCCN3)cc2)cc1 [Formula I]

induction of VEGF secretion [3]: dose dependently induces VEGF secretion
SMILES: CCC#CC[C@H](C)[C@H](O)C#C[C@@H]1[C@H]2C/C(=C/COCC(=O)O)C[C@H]2C[C@H]1O [cicaprost]
